Laboratory results: article PMC6696315, “Inhibiting Acetylcholinesterase to Activate Pleiotropic Prodrugs with Therapeutic Interest in Alzheimer’s Disease” (Molecules, 2019)

Columns and labels:
[1] = tested on: mice; assay: Spontaneous alternation (Y maze), scopolamine-induced deficit; format: in vivo, NMRI mice; conditions: 1 mg/kg IP 30 min before test, scopolamine 0.5 mg/kg SC
Experimental: Animals. Adult male NMRI mice (3 months old, weighing 35–40 g) from Janvier labs (Le Genest-Saint-Isle, France) were used to perform experiments. Mice were housed by ten in standard polycarbonate cages in standard controlled conditions (22 ± 2 °C, 55 ± 10% humidity) with a reversed 12 h light/dark cycle (light on at 7 pm). Food and water were available ad libitum in the home cage. All experiments were conducted (between 9 am and 3 pm) during the active–dark phase of the cycle and were in agreement with the European Directives and French law on animal experimentation (personal authorization n° 14–17 for MB and 14–60 for TF).
Spatial working memory. The antiamnesic activity of the tested compounds was evaluated by a reversal of deficit on spontaneous alternation behavior in the Y maze test. […] The Y maze made of grey plastic consisted of three equally-spaced arms (21-cm long, 7-cm wide with walls 15-cm high). The mouse was placed at the end of one of the arms and allowed to move freely through the maze during a 5 min session, while the sequence of arm entries was recorded by an observer. An arm entry was scored when all four feet crossed into the arm. An alternation was defined as entries into all three arms on a consecutive occasion.
Pharmacological treatments.

[2] = tested on: mice; assay: Spontaneous locomotor activity (actimeter); format: in vivo, NMRI mice; conditions: IP 30 min before test, 1, 3 and 10 mg/kg
Experimental: Locomotor activity. The locomotion of mice was measured using an actimeter (Imetronic®, Pessac, France) through infrared detection. Eight individual removable polycarbonate cages (21 cm length, 7 cm wide and 12 cm high), in which each mouse was placed, were used in the actimeter. Locomotor activity was measured by recording the number of interruptions of beams of the red light over a period of 30 min through a recording system attached to the actimeter. Compound 20 was tested at 1, 3 and 10 mg/kg. Chlorpromazine (3 mg/kg) were used as depressive reference.

[3] = target: T1, (ee)AChE (Electrophorus electricus, UniProt O42275); assay: AChE-dependent decarbamoylation (UPLC, LCMS); format: biochemical; conditions: 5 µM, PBS pH 7.4, 24 h
T1 construct: purchased Sigma Aldrich
T1 sequence (O42275 24-633): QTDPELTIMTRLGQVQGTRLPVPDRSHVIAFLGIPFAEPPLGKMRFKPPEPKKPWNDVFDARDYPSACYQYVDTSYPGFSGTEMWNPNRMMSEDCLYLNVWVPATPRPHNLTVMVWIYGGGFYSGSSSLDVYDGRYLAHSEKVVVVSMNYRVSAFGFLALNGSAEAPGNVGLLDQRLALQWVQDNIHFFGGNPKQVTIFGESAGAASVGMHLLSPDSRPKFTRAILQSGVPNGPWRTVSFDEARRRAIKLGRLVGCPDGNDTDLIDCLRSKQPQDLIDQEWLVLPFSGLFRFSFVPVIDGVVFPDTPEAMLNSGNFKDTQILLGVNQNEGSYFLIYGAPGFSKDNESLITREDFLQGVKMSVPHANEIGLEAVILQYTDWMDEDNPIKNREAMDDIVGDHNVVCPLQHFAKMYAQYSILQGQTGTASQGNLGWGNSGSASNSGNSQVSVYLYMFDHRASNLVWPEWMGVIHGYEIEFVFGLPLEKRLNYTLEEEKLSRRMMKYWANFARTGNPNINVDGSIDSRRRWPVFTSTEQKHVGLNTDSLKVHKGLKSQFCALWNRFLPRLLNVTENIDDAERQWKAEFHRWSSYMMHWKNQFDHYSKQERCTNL
Experimental: The in vitro decarbamoylation of 20 in the presence of AChE was established according to a new analytical method developed by Alix et al.. A large excess of Electrophorus electricus (eel)AChE was added to a solution of 20 in a phosphate-buffered saline (PBS) buffer (pH 7.4) at 25 °C. After 24 h of incubation, the solution was extracted by ethyl acetate, evaporated and solubilized in acetonitrile, and then analyzed by UPLC and LCMS. Owing to its high homology with the active-site sequence of the human AChE and its commercial availability, (ee)AChE is commonly used for in vitro assays and was chosen for this study.
The HPLC analyses were performed using an Agilent pump 1290, an autosampler 1290 and a diode array UV detector 1260 (Agilent technologies, Santa Clara, CA, USA). A reversed phase column C18 (Zorbax1 Eclipse Plus RRHD, 1.8 µm, 2.1 × 50 mm, Agilent) has been used for all components. A binary pump was used and the mobile phase was always composed of a mixture of (A) water (0.1% formic acid) and (B) acetonitrile (0.1% formic acid). Solutions of compound 19 and 20 were prepared in a PBS buffer (pH 7.4). […] The crude product was submerged in 50 µL of ACN, then analyzed by UPLC and LC-MS.

CCN(C)C(=O)Oc1cccc(CN2CCC(CCC(=O)c3cc(Cl)c(N)cc3OC)CC2)c1.O=C(O)/C=C/C(=O)O [Compound 20, [3-[[4-[3-(4-Amino-5-chloro-2-methoxyphenyl)-3-oxopropyl]-1-piperidyl]methyl]phenyl] N-ethyl-N-methyl-carbamate fumaric acid salt]
percentage of spontaneous alternation [1]: significantly different from the value of the chance level
spontaneous locomotor activity versus NaCl [2]: none of the tested doses of compound 20 (1, 3 and 10 mg/kg) statically modified spontaneous locomotor activity
decarbamoylation in the presence of (ee)AChE ([3]; 250 U/mL (ee)AChE): decarbamoylation of 20 and release of 4
chemical conversion in PBS buffer without (ee)AChE ([3]; negative control): not chemically converted into 4
